{"source": "patent US8299049B2", "about": "“Compositions comprising an extract of Tiarella polyphylla or compounds isolated therefrom for preventing and treating cancer diseases” (Korea Institute of Bioscience and Biotechnology, priority 2007, dated 2012)", "key": {"TM4SF5-expressing cells": {"test_system": "TM4SF5-expressing cells", "experiment": "Immunofluorescence of focal adhesions and actin, TM4SF5-expressing cells", "assay_type": "cell-based", "experimental": "(§1) Cells were treated with DMSO or 20 μM TA for 24 hrs. Then, the cells were plated on 10 μg/ml fibronectin-precoated coverslips and incubated for 2 hrs in the presence of DMSO or 20 μM TA. Subsequently, immunofluorescence staining was performed using pY^397 FAK, pY^118 paxillin, and actin, as described in the literature (Lee, S. Y. et al., Focal adhesion and actin organization by a cross-talk of TM4SF5 with integrin α2 are regulated by serum treatment, Exp Cell Res, 312, pp. 2983-99, 2006). Mounted samples were visualized by a fluorescent microscope (BX51, Olympus, Japan)."}, "[1]": {"test_system": "TM4SF5-null cells including Hek293 and COST fibroblast, MDA-MB-453 breast, SNU638 and SNU668 stomach, and SNU398 liver epithelial cells", "experiment": "Cell number of diverse cell lines without TM4SF5 after TA treatment", "assay_type": "cell-based", "conditions": "TA 5 or 20 μM", "experimental": "(§2) After virus infection, pooled stable clones (control SNU449Cp and TM4SF5-expressing SNU449Tp cell clones) and single cell-driven stable clones (TM4SF5-expressing SNU449T16) were prepared by infecting SNU449 hepatocytes (Korean Cell Bank, Seoul, Korea) with retrovirus for empty pLNCX or pLNCX with TM4SF5. Parental and control cells (Cp) were maintained in RPMI-1640/10% FBS/0.25 μg/ml gentamycin (Calbiochem, San Diego, Calif.) without or with 200 μg/ml G418 (A.G. Scientific Inc., San Diego, Calif.), respectively, at 37° C. and 5% CO2. Cells endogenously expressing TM4SF5 or cells endogenously expressing no TM4SF5 (Korean Cell Bank) were maintained in either DMEM-H or RPMI-1640 media with 10% FBS (JBI Inc., Daegu, Korea).\n(§3) Next, to confirm that tiarellic acid (TA) is specific to TM4SF5, cytotoxicity of tiarellic acid (TA) was examined using cells with endogenous TM4SF5 expression. RT-PCR was performed using a primer set described in the following Table 1 under the conditions including 30 cycles of 94° C. for 30 sec, 55° C. for 30 sec, and 72° C. for 30 sec. Diverse cell lines were treated with tiarellic acid (TA) at a concentration of 5 or 20 μM."}, "[2]": {"test_system": "TM4SF5-null cells (SNU449P, SNU449Cp)", "experiment": "Degree of adhesion on fibronectin-precoated dishes, TM4SF5-null cells", "assay_type": "cell-based", "conditions": "20 μM TA 24 hr, reseeded on fibronectin 1 hr", "experimental": "Thus, it could be thought that TA treatment induces anoikis of TM4SF5-expressing cells. To examine whether TA treatment affected cellular adhesion, the following procedure was performed prior to analysis of TA-meditated cell death, as described in the literature (Yang, X. et al., Palmitoylation supports assembly and function of integrin-tetraspanin complexes, J Cell Biol, 167, pp. 1231-40, 2004).\nCells were treated with 20 μM TA for 24 hr, and the floating cells were collected and reseeded on fibronectin-precoated dishes for 1 hr before determination of the degree of adhesion."}, "[3]": {"test_system": "focal adhesion molecules in TM4SF5-expressing SNU449Tp cell line", "experiment": "Immunoblot of focal adhesion molecule expression and activation, SNU449Tp", "assay_type": "cell-based", "conditions": "FIG. 11", "experimental": "Whole cell lysates from cells under diverse experimental conditions were prepared, as described in the literature (Lee, S. Y. et al., Focal adhesion and actin organization by a cross-talk of TM4SF5 with integrin α2 are regulated by serum treatment, Exp Cell Res, 312, pp. 2983-99, 2006). For example, cells were subjected to electroporation (950 μF, 250 V) with a control GFP, wild-type focal adhesion kinase (FAK), paxillin, p130Cas cDNA. One day after electroporation, cells were treated with TA (20 μM) for the indicated periods. Cells cultured normally or treated with TA at different concentrations for the indicated periods were harvested using RIPA buffer. Control or tumor tissues from nude mice were frozen immediately after surgery using liquid N2. Tissues in the liquid N2 was homogenized using a mortar and pestle, and extracted using 0.1% SDS containing RIPA buffer. Standard Western blots of lysates were performed by using antibody against phospho-Y^397, Y^407, Y^577, Y^861, Y^925 FAK (BioSource International, Inc., Camarillo, Calif.), phospho-Y^416Src, c-Src, p15^INK4B, p16^INK4A (Santa Cruz Biotech., Santa Cruz, Calif.), FAK, p130Cas, paxillin, pY^118paxillin, active caspase-3 (BD Transduct. Lab., San Jose, Calif.), α-tubulin (Sigma, St Louis, Mo.), phopsho-S^473, or T^308Akt, Akt, phospho-Erk1/2, Erk1/2 (Cell Signaling Tech., Danvers, Mass.), and TM4SF5 (homemade). […]"}, "[4]": {"test_system": "SNU449Tp and SNU449T16 expressing TM4SF5", "experiment": "Analysis of cellular DNA content (sub-G1), TM4SF5-expressing cells", "assay_type": "cell-based", "conditions": "20 μM TA, 24 hr", "source_text": "FIG. 19 is the result of analyzing cellular DNA content, after tiarellic acid (TA) treatment;"}, "TM4SF5": {"test_system": "TM4SF5", "experiment": "Effect of TA treatment on TM4SF5 expression of P, Cp, Tp and T16 cells", "assay_type": "cell-based"}, "[5]": {"test_system": "focal adhesion molecules in cells that express endogenous TM4SF5", "experiment": "Focal adhesion molecule activation in cells endogenously expressing TM4SF5", "assay_type": "cell-based", "conditions": "FIG. 12", "experimental": "Whole cell lysates from cells under diverse experimental conditions were prepared, as described in the literature (Lee, S. Y. et al., Focal adhesion and actin organization by a cross-talk of TM4SF5 with integrin α2 are regulated by serum treatment, Exp Cell Res, 312, pp. 2983-99, 2006). For example, cells were subjected to electroporation (950 μF, 250 V) with a control GFP, wild-type focal adhesion kinase (FAK), paxillin, p130Cas cDNA. One day after electroporation, cells were treated with TA (20 μM) for the indicated periods. Cells cultured normally or treated with TA at different concentrations for the indicated periods were harvested using RIPA buffer. Control or tumor tissues from nude mice were frozen immediately after surgery using liquid N2. Tissues in the liquid N2 was homogenized using a mortar and pestle, and extracted using 0.1% SDS containing RIPA buffer. Standard Western blots of lysates were performed by using antibody against phospho-Y^397, Y^407, Y^577, Y^861, Y^925 FAK (BioSource International, Inc., Camarillo, Calif.), phospho-Y^416Src, c-Src, p15^INK4B, p16^INK4A (Santa Cruz Biotech., Santa Cruz, Calif.), FAK, p130Cas, paxillin, pY^118paxillin, active caspase-3 (BD Transduct. Lab., San Jose, Calif.), α-tubulin (Sigma, St Louis, Mo.), phopsho-S^473, or T^308Akt, Akt, phospho-Erk1/2, Erk1/2 (Cell Signaling Tech., Danvers, Mass.), and TM4SF5 (homemade)."}, "[6]": {"test_system": "TM4SF5-expressing SNU449Tp cells", "experiment": "Inhibitory effect on growth of TM4SF5-expressing cell", "assay_type": "cell-based", "experimental": "as §2"}, "[7]": {"test_system": "cells with endogenous TM4SF5 expression", "experiment": "Cell number of cell lines with endogenous TM4SF5 expression after TA treatment", "assay_type": "cell-based", "conditions": "TA 5 or 20 μM", "experimental": "as §2, §3"}, "[8]": {"experiment": "Body weight and toxic side effects in tumor-bearing nude mice", "assay_type": "in vivo", "conditions": "3 or 30 mg/kg i.p. every other day, 30 days", "experimental": "4-5 week old female nude mice (BALB/cAnNCrjBgi-nu) were purchased from Orient. Co. Ltd. (Seongnam, Korea). The mice were housed in a specific pathogen-free room under controlled temperature and humidity. All animal procedures were performed in accordance with the procedures in Seoul National University Laboratory Animal Maintenance Manual and with IRB agreement. Mice aged 5-6 weeks were injected subcutaneously with 5×10^6 viable SNU449Cp or SNU449T16 cells. Tumor volumes were measured with a caliper and calculated using the following Mathematical Formula 1. When the tumor volume reached 200 mm^3, mice were injected intraperitoneally with 3 mg/kg or 30 mg/kg (body weight) of tiarellic acid (TA) every other day for 30 days. (Width×Length^2)/2 [Mathematical Formula 1]\nTo evaluate whether tiarellic acid (TA) administration might interfere with TM4SF5 mediated tumor formation in nude mice, the following experiment was performed as described in the literature (Lee S-A et al., TM4SF5-mediated transmodulation between cytosolic p27Kip1 and Rho GTPases and epithelial-mesenchymal transition cause loss of contact inhibition, Cancer Cell, 2007)."}, "[9]": {"test_system": "Akt and caspase-3 in TM4SF5-expressing SNU449T16 cells", "experiment": "Western blotting of cell survival and death-related signaling molecules", "assay_type": "cell-based", "conditions": "various time periods", "experimental": "FIG. 18 is the result of Western blotting of cell survival and death-related signaling molecules, after tiarellic acid (TA) treatment for various time periods;\nWhole cell lysates from cells under diverse experimental conditions were prepared, as described in the literature (Lee, S. Y. et al., Focal adhesion and actin organization by a cross-talk of TM4SF5 with integrin α2 are regulated by serum treatment, Exp Cell Res, 312, pp. 2983-99, 2006). For example, cells were subjected to electroporation (950 μF, 250 V) with a control GFP, wild-type focal adhesion kinase (FAK), paxillin, p130Cas cDNA. One day after electroporation, cells were treated with TA (20 μM) for the indicated periods. Cells cultured normally or treated with TA at different concentrations for the indicated periods were harvested using RIPA buffer. Control or tumor tissues from nude mice were frozen immediately after surgery using liquid N2. Tissues in the liquid N2 was homogenized using a mortar and pestle, and extracted using 0.1% SDS containing RIPA buffer. […]"}, "[10]": {"test_system": "TM4SF5 null SNU449Cp cells", "experiment": "Inhibitory effect on cell growth, TM4SF5-null control cells", "assay_type": "cell-based", "conditions": "20 μM, 3 days", "experimental": "as §2"}, "TM4SF5-null cells": {"test_system": "TM4SF5-null cells", "experiment": "Immunofluorescence of focal adhesions and actin, TM4SF5-null cells", "assay_type": "cell-based", "conditions": "20 μM TA", "experimental": "as §1"}, "[11]": {"test_system": "SNU449Tp cells expressing TM4SF5", "experiment": "Number of floating cells, SNU449Tp", "assay_type": "cell-based", "conditions": "TA versus DMSO", "source_text": "FIG. 17 is a graph showing the number of floating SNU449Cp and SNU449Tp cells, after tiarellic acid (TA) treatment for various time periods;"}}}
{"molecule": "C=C(C)C1CC[C@]2(C)CC[C@]3(C(=O)O)C(CCC4[C@@]5(C)CC[C@H](O)[C@@](C)(CO)C5CC[C@]43C)C12", "note": "(stereo partly drawn) [tiarellic acid (TA), 3,23-dihydroxy-20(29)-lupen-27-oic acid]", "values": [{"measurement": "immunostaining for pY397FAK or pY118paxillin", "setting": "TM4SF5-expressing cells; FIG. 13", "value": "disassembly of focal adhesion molecules was observed"}, {"measurement": "association between integrin α5 and pY397FAK", "setting": "TM4SF5-expressing cells; FIG. 14", "value": "dissociation"}, {"measurement": "actin organization and stress fibers", "setting": "TM4SF5-expressing cells; FIG. 15", "value": "abnormal actin organization with insignificant stress fibers"}, {"measurement": "proliferation of TM4SF5-null cells", "setting": "[1]", "value": "not affected"}, {"measurement": "adhesion", "setting": "[2]", "value": "not affected"}, {"measurement": "TM4SF5-dependent inhibitory effects on focal adhesion molecules", "setting": "[3]", "value": "inhibitory effects"}, {"measurement": "pErk1/2", "setting": "[3]", "value": "slightly increased"}, {"measurement": "sub-G1 populations (cellular DNA content)", "setting": "[4]", "value": "significant sub-G1 populations"}, {"measurement": "expression level of TM4SF5", "setting": "TM4SF5", "value": "without affecting"}, {"measurement": "inhibitory effects on focal adhesion molecule activation", "setting": "[5]", "value": "observed"}, {"measurement": "number of TM4SF5-expressing cells", "setting": "[6]; FIG. 4, depending on concentration and time", "value": "decreased"}, {"measurement": "inhibitory effect on cell growth", "setting": "[6]; SNU449Tp, 5 μM, 3 days", "value": "inhibitory effect was observed"}, {"measurement": "cell density and cell shape", "setting": "[6]; SNU449Tp, 20 μM, 3 days", "value": "reduced cell density and round shaped cells were observed"}, {"measurement": "inhibitory effect on the growth of TM4SF5-expressing cell", "setting": "[6]; TA 0, 0.1, 5, 20 μM", "value": "inhibitory effect"}, {"measurement": "growth of cells with endogenous TM4SF5 expression", "setting": "[7]", "value": "growth suppression"}, {"measurement": "body weight", "setting": "[8]", "value": "increased normally"}, {"measurement": "toxic side effects", "setting": "[8]", "value": "no significant toxic side effects"}, {"measurement": "Akt and caspase-3 activity", "setting": "[9]", "value": "Akt inactivation and caspase-3 activation"}, {"measurement": "inhibitory effect on cell growth", "setting": "[10]", "value": "not observed"}, {"measurement": "focal adhesion formation", "setting": "TM4SF5-null cells", "value": "did not affect"}, {"measurement": "number of floating cells", "setting": "[11]", "value": "increased"}]}
